Molecular target: T1, SIRT1 (Homo sapiens, UniProt Q96EB6)
T1 sequence (Q96EB6 1-747): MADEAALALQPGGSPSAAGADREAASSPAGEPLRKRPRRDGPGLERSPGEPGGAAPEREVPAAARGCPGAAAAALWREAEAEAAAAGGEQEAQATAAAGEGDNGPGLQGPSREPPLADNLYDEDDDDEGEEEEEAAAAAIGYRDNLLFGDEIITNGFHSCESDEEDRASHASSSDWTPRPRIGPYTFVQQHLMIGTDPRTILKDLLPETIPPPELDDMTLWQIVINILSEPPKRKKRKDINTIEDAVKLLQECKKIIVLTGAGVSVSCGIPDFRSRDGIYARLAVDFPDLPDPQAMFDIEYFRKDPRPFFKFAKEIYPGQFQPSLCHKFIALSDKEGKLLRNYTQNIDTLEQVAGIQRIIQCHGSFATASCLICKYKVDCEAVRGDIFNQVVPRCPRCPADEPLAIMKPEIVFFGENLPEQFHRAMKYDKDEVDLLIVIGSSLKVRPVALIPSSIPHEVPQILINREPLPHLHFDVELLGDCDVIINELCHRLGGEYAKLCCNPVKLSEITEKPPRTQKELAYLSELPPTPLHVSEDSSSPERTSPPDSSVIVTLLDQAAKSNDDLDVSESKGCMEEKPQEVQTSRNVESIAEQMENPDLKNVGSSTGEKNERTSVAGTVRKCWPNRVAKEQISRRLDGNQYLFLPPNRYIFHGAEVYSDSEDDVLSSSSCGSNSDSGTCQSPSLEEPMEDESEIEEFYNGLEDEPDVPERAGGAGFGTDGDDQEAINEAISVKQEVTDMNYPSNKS
Test: Mass spectrometry based SIRT1 deacetylation (activation) assay
Format: biochemical
Conditions: 0.5 μM peptide substrate, 120 μM βNAD+, 10 nM SIRT1, 25 min at 25° C.; for Emax: 25 min, read-out: % Fold Act. (percent maximum fold activation)
Description: A mass spectrometry based assay was used to identify modulators of SIRT1 activity. The mass spectrometry based assay utilizes a peptide having 20 amino acid residues as follows: Ac-EE-K(biotin)-GQSTSSHSK(Ac)NleSTEG-K(5TMR)-EE-NH2 (SEQ ID NO: 1) wherein K(Ac) is an acetylated lysine residue and Nle is a norleucine. The peptide is labeled with the fluorophore 5TMR (excitation 540 nm/emission 580 nm) at the C-terminus. The sequence of the peptide substrate is based on p53 with several modifications. In addition, the methionine residue naturally present in the sequence was replaced with the norleucine because the methionine may be susceptible to oxidation during synthesis and purification.
The mass spectrometry assay is conducted as follows: 0.5 μM peptide substrate and 120 μM βNAD^+ is incubated with 10 nM SIRT1 for 25 minutes at 25° C. in a reaction buffer (50 mM Tris-acetate pH 8, 137 mM NaCl, 2.7 mM KCl, 1 mM MgCl2, 5 mM DTT, 0.05% BSA). Test compounds may be added to the reaction as described above. […] After the 25 minute incubation with SIRT1, 10 μL of 10% formic acid is added to stop the reaction. Reactions are sealed and frozen for later mass spec analysis. Determination of the mass of the substrate peptide allows for precise determination of the degree of acetylation (i.e. starting material) as compared to deacetylated peptide (product).
A control for inhibition of sirtuin activity is conducted by adding 1 μL of 500 mM nicotinamide as a negative control at the start of the reaction (e.g., permits determination of maximum sirtuin inhibition). A control for activation of sirtuin activity is conducted using 10 nM of sirtuin protein, with 1 μL of DMSO in place of compound, to determine the amount of deacetylation of the substrate at a given timepoint within the linear range of the assay. This timepoint is the same as that used for test compounds and, within the linear range, the endpoint represents a change in velocity.
For the above assay, SIRT1 protein was expressed and purified as follows. […] The protein was expressed by induction with 1 mM IPTG as an N-terminal His-tag fusion protein at 18° C. overnight and harvested at 30,000×g. Cells were lysed with lysozyme in lysis buffer (50 mM Tris-HCl, 2 mM Tris[2-carboxyethyl]phosphine (TCEP), 10 μM ZnCl2, 200 mM NaCl) and further treated with sonication for 10 min for complete lysis. The protein was purified over a Ni-NTA column (Amersham) and fractions containing pure protein were pooled, concentrated and run over a sizing column (Sephadex S200 26/60 global). The peak containing soluble protein was collected and run on an Ion-exchange column (MonoQ). Gradient elution (200 mM-500 mM NaCl) yielded pure protein. This protein was concentrated and dialyzed against dialysis buffer (20 mM Tris-HCl, 2 mM TCEP) overnight. The protein was aliquoted and frozen at −80° C. until further use.

| EC1.5 | Emax [%] | Compound |
| --- | --- | --- |
| B (EC1.5>1 and ≦10 uM) | 150 to 300 | CN(C)CCNc1cc(C(=O)Nc2ccccc2C(=O)NCCS(C)(=O)=O)nc(-c2ccccc2)n1 [Compound 149, 6-(2-(dimethylamino)ethylamino)-N-(2-(2-(methylsulfonyl)ethylcarbamoyl)phenyl)-2-phenylpyrimidine-4-carboxamide] |
| A (EC1.5≦1 uM) | ≥ 300 | CCN(CCN(C)C)c1cc(C(=O)Nc2ccccc2-c2nnc(-c3ccccn3)s2)nc(-c2ccccc2)n1 [Compound 74] |
| A (EC1.5≦1 uM) | ≥ 300 | COCCN(CCOC)c1cc(C(=O)Nc2ccccc2C(C)=O)nc(-c2ccccc2)n1 [Compound 141] |
| A (EC1.5≦1 uM) | 150 to 300 | Cc1ccc(NC(=O)c2ccccc2NC(=O)c2cc(NCCN(C)C)nc(-c3ccccc3)n2)cc1 [Compound 144, 6-(2-(dimethylamino)ethylamino)-2-phenyl-N-(2-(p-tolylcarbamoyl)phenyl)pyrimidine-4-carboxamide] |
| A (EC1.5≦1 uM) | ≥ 300 | CCN(CCN(C)C)c1cc(C(=O)Nc2ccccc2C(=O)NC2CCNCC2)nc(-c2ccccc2)n1 [Compound 167, 6-((2-(dimethylamino)ethyl)(ethyl)amino)-2-phenyl-N-(2-(piperidin-4-ylcarbamoyl)phenyl)pyrimidine-4-carboxamide] |
| A (EC1.5≦1 uM) | ≥ 300 | CCN(CCN(C)C)c1cc(C(=O)Nc2ccccc2C(=O)Nc2ccccc2C(N)=O)nc(-c2ccccc2)n1 [Compound 160, N-(2-(2-carbamoylphenylcarbamoyl)phenyl)-6-((2-(dimethylamino)ethyl)(ethyl)amino)-2-phenylpyrimidine-4-carboxamide] |
| A (EC1.5≦1 uM) | ≥ 300 | CN(C)CCNc1cc(C(=O)Nc2ccccc2C(=O)Nc2cccc(Cl)c2)nc(-c2ccccc2)n1 [Compound 145, N-(2-(3-chlorophenylcarbamoyl)phenyl)-6-(2-(dimethylamino)ethylamino)-2-phenylpyrimidine-4-carboxamide] |
| B (EC1.5>1 and ≦10 uM) | 150 to 300 | CCC(=O)c1ccccc1NC(=O)c1cc(NCCN(C)C)nc(-c2ccccc2)n1 [Compound 126] |
| B (EC1.5>1 and ≦10 uM) | 150 to 300 | CN(C)CCNc1cc(C(=O)Nc2ccccc2C(=O)Nc2ccccc2)nc(-c2ccccc2)n1 [Compound 128, 6-(2-(dimethylamino)ethylamino)-2-phenyl-N-(2-(phenylcarbamoyl)phenyl)pyrimidine-4-carboxamide] |
| B (EC1.5>1 and ≦10 uM) | 150 to 300 | CN(C)CCNc1cc(C(=O)Nc2ccccc2-c2cccnc2)nc(-c2ccccc2)n1 [Compound 11] |
| B (EC1.5>1 and ≦10 uM) | 150 to 300 | CCN(CCN(C)C)c1cc(C(=O)Nc2ccccc2-c2ncc(C(C)(C)C)o2)nc(-c2ccccc2)n1 [Compound 65] |
| B (EC1.5>1 and ≦10 uM) | 150 to 300 | CCN(CCN(C)C)c1cc(C(=O)Nc2ccccc2C(=O)NC2CCCN(C(=O)OC(C)(C)C)C2)nc(-c2ccccc2)n1 (stereo not drawn) [Compound 172, tert-butyl 3-(2-(6-((2-(dimethylamino)ethyl)(ethyl)amino)-2-phenylpyrimidine-4-carboxamido)benzamido)piperidine-1-carboxylate] |
| A (EC1.5≦1 uM) | ≥ 300 | CCN(CCN(C)C)c1cc(C(=O)Nc2ccccc2-c2nnc(C3CCOC3)s2)nc(-c2ccccc2)n1 (stereo not drawn) [Compound 97, 6-((2-(dimethylamino)ethyl)(ethyl)amino)-2-phenyl-N-(2-(5-(tetrahydrofuran-3-yl)-1,3,4-thiadiazol-2-yl)phenyl)pyrimidine-4-carboxamide] |
| A (EC1.5≦1 uM) | 150 to 300 | CCCCc1nnc(-c2ccccc2NC(=O)c2cc(N(CC)CCN(C)C)nc(-c3ccccc3)n2)s1 [Compound 62] |

Further lines, the compound ahead of its results:

| Compound | EC1.5 | Emax [%] |
| --- | --- | --- |
| COCCN(CCOC)c1cc(C(=O)Nc2ccccc2-c2nnc(C(=O)N3CCOCC3)s2)nc(-c2ccccc2)n1 [Compound 92] | A (EC1.5≦1 uM) | ≥ 300 |
| CN(C)CCNc1cc(C(=O)Nc2ccccc2C(=O)N2CCCC2)nc(-c2ccccc2)n1 [Compound 120, 6-(2-(dimethylamino)ethylamino)-2-phenyl-N-(2-(pyrrolidine-1-carbonyl)phenyl)pyrimidine-4-carboxamide] | C (EC1.5>10 uM) | ≥ 300 |
| Cc1cnc(-c2ccccc2NC(=O)c2cc(NCCN(C)C)nc(-c3ccccc3)n2)o1 [Compound 23] | B (EC1.5>1 and ≦10 uM) | ≥ 300 |
| CC(=O)c1ccccc1NC(=O)c1cc(NC2CCN(C(C)C)CC2)nc(-c2ccccc2)n1 [Compound 137] | A (EC1.5≦1 uM) | ≥ 300 |
| CN(C)CCNc1cc(C(=O)Nc2ccccc2-c2ncc(-c3ccccc3)o2)nc(-c2ccccc2)c1 [Compound 30] | A (EC1.5≦1 uM) | ≥ 300 |
| CN(C)CCNc1cc(C(=O)Nc2ccccc2)nc(-c2ccccc2)n1 [Compound 6] | C (EC1.5>10 uM) | 150 to 300 |
| CN(C)CCNc1cc(C(=O)Nc2ccccc2-n2cc(-c3ccccc3)cn2)nc(-c2ccccc2)n1 [Compound 24] | B (EC1.5>1 and ≦10 uM) | 150 to 300 |
| CCN1CCN(c2cc(C(=O)Nc3ccccc3-c3nncs3)nc(-c3ccccc3)n2)CC1=O [Compound 96] | A (EC1.5≦1 uM) | 150 to 300 |
| CCN1CCN(c2cc(C(=O)Nc3ccccc3-c3nnc(N4CCOCC4)s3)nc(-c3ccccc3)n2)CC1=O [Compound 104] | A (EC1.5≦1 uM) | 150 to 300 |
| CN(C)CCNc1cc(C(=O)Nc2ccccc2-c2csc(-c3ccccc3)n2)nc(-c2ccccc2)n1 [Compound 12] | B (EC1.5>1 and ≦10 uM) | 150 to 300 |
| CN(C)CCNc1cc(C(=O)Nc2ccccc2-c2nnc(C(N)=O)s2)nc(-c2ccccc2)n1 [Compound 66] | A (EC1.5≦1 uM) | 150 to 300 |
| CN(C)CCNc1cc(C(=O)Nc2ccccc2C#N)nc(-c2ccccc2)n1 [Compound 4] | B (EC1.5>1 and ≦10 uM) | 150 to 300 |
| CC(=O)c1ccccc1NC(=O)c1cc(N2CCNCC2)nc(-c2ccccc2)n1 [Compound 138] | B (EC1.5>1 and ≦10 uM) | ≥ 300 |
| CN(C)CCNc1cc(C(=O)Nc2ccccc2-c2ncc(C(C)(C)C)o2)nc(-c2ccccc2)n1 [Compound 39] | B (EC1.5>1 and ≦10 uM) | 150 to 300 |
| CCN1CCN(c2cc(C(=O)Nc3ccccc3-c3nnc(C4CCOCC4)s3)nc(-c3ccccc3)n2)CC1=O [Compound 94, 6-(4-ethyl-3-oxopiperazin-1-yl)-2-phenyl-N-(2-(5-(tetrahydro-2H-pyran-4-yl)-1,3,4-thiadiazol-2-yl)phenyl)pyrimidine-4-carboxamide] | A (EC1.5≦1 uM) | 150 to 300 |
| O=C(Nc1ccccc1C(=O)c1nccs1)c1cc(N2CCOCC2)nc(-c2ccccc2)n1 [Compound 176] | A (EC1.5≦1 uM) | 150 to 300 |
